Laboratory results as given in patent US8188218B2, “Bi-functional peptides for multiple sclerosis treatment and diagnosis” (priority 2006, dated 2012).
Read-outs that look alike come from different tables or passages of the source. Numbered stars: 1 amine (or outer) side, 2 acyl side, 3 side chain; on linkers, the order of the positions; unused ones are H or OH. Square brackets hold non-standard residues; d marks the D form. Ends that are not written are not given here. Peptide text beside a SMILES is read from it. Eb = biotinyl-PEG-Glu: N-γ-(N-biotinyl-3-(2-(2-(3-aminopropyloxy)-ethoxy)-ethoxy)-propyl)-L-glutamine, O=C(CCCC[C@@H]1SC[C@@H]2NC(=O)N[C@@H]21)NCCCOCCOCCOCCCNC(=O)CC[C@H](N[*:1])C(=O)[*:2]; Ahx = NCCCCCC(=O)O

Experiments:
[1] = tested on: EAE mouse model (SJL/J female mice immunized with PLP/CFA); format: in vivo; conditions: for number of animals that died, Day 10 / number of animals that died, Day 11 / number of animals that died, Day 14 / number of animals that died, Total: 10 mice/group; for toxicity (conclusion from mortality, in words): mouse, in vivo
Description: To evaluate the in vivo activity of these molecules, SJL/J female mice at 6-8 weeks of age (Jackson Laboratory, Bar Harbor, Me.) were divided into six groups with ten mice in each group. At the initiation state (Day 0), all mice (10/group) were immunized by subcutaneous (s.c.) inoculation with 200 μg of PLP in a 0.2 mL emulsion with equal volumes of phosphate buffered saline (“PBS”) and complete Freund's adjuvant (“CFA”) (Difco, Detroit, Mich.). To enhance immunization with antigen, killed Mycobacterium tuberculosis strain H37RA (Difco) was added to the emulsion at a concentration of 4 mg/mL and administered to regions above the shoulder and the flanks. The injection volume was 50 μL at each injection site. In addition, 200 ng of pertussis toxin (List Biological Laboratories, Campbell, Calif.) was injected intraperitoneally (i.p.) on the day of immunization and 48 hours post-immunization. The onset of disease was on day 8 to day 12 post-immunization. Then, each mouse in Groups 1-4 received intravenous (i.v.) injections of 100 nmole/100 μL of the test peptides (PLP-BPI, PLP139-151, OVA-BPI, LABL) on days 4, 7, 10 and 14. Group 5 animals were injected with PBS on days 4, 7, 10 and 14. Group 6 animals received one i.p. injection of 500 μg PLPL,R on day 7.
All of the immunized mice were scored blindly 5-6 days/week by the same observer. Mean daily clinical scores were calculated by adding the grades of each mouse individually divided by the number of mice in each group. All animals were observed daily and, upon signs of paralysis and weakness, gel food and Napa nectar were provided to the animals to prevent dehydration. Saline was injected (s.c.) if a weight loss of 10% was observed within a 24-hour period. Body weight and disease scoring started at the onset of the disease (day 8). The measurements were continued daily (5 to 6 days/week) until the end of the disease.
The statistical analyses of the EAE scores and EAE incidence were done using Mann-Whitney U test and Kaplan-Meier analysis, respectively. The comparison was done between the peptide-treated mice (Groups 1, 2, 3, 4, and 6) and the control group (Group 5) at day 14 post-immunization.

PLP/CFA-immunized mice = experiment: Anaphylaxis incidence after re-injection of the peptide at day 30
[2] = tested on: PLP/CFA-immunized female SJL/J mice; experiment: Anaphylaxis incidence after injection of the peptide at later phase of disease; format: in vivo, mouse
From the text: The less incidence of inducing anaphylactic shock by BPI molecules was further examined. Female SJL/J mice were immunized with PLP/CFA as above, and injected intravenously with PLP or BPI molecules (100 nmol/mouse) at later phase of the disease (i.e., between day 28 and day 35). […] This was confirmed in another set of experiment, PLP-BPI induced anaphylaxis to 38.5% of treated mice while PLP caused anaphylaxis to more than 80% of treated mice (Table 9, Experiment II). In addition, 100% of mice that were injected with unlinked mixture of PLP and LABL (100 nmol each) died due to anaphylaxis. […] Taken together, BPI molecules (including PLP-BPI and Ac-PLP-BPI-NH2) could suppress EAE more efficiently with lower incidence of inducing anaphylaxis than PLP.

EAE mouse model = experiment: EAE mouse model, PLP-BPI vs mixture of PLP and LABL and VP2-BPI (Example 4); format: in vivo
From the text: To evaluate whether linking PLP and LABL peptides to give PLP-BPI has a significant role on its immunomodulatory activity, the activity of PLP-BPI was compared with that of a mixture of unlinked PLP and LABL peptides at the same concentration. To answer whether any antigenic peptide such as VP2 peptide that is linked to LABL peptide to give VP2-BPI will have immunomodulatory activity similar to that of PLP-BPI, we evaluated the activity of VP2-BPI in the same experiment. VP274-86 is an epitope peptide of Theiler's encephalomyelitis virus capsid protein VP2, and is known to bind to I-A^s. PBS-treated mice were used as the negative control. The experimental protocol was the same as in the previous study (see FIG. 1). Thus, VP2-BPI was used as a control to example to see if the PLP portion of the PLP-BPI is important to therapeutic activity.

[3] = tested on: T-cell-depleted splenocytes isolated from SJL/J female mice (EAE-induced); conditions: 50 μM, 16 hours at 37° C.; FIG. 11(B)
From the text: Binding studies were done using mouse B-lymphocyte line LS102.9 (FIG. 11(A)) and the isolated B-cells from the spleen of female SJL/J mice after induction of EAE (FIG. 11(B)). […] For the isolated spleen cells from EAE mice, the cells were isolated from female SJL/J mice on day 45 post immunization with PLP/CFA, when the clinical disease score for the mice was 0. Lymphocytes were obtained from the spleen cell suspension by centrifugation over Lymphocyte Separation Medium. T-cells were depleted by incubation with anti-CD90 mAb (clone G7) followed by Low-tox rabbit complement. Then, the cells were centrifuged over Lymphocyte Separation Medium to remove dead cells.
For the binding study, the biotin-labeled peptide (50 μM) was incubated with LS102.9 cells or T-cell-depleted splenocytes (2×10^6 cells) in 0.5% BSA-containing PBS for 16 hours at 37° C., 5% CO2. Following washing×3 with 5% FBS-containing PBS, the cells were incubated with fluorescein Avidin D (15 μg/ml) for 30 min at 4° C. The cells were further stained with biotinylated anti-Avidin D (1 μg/ml) for 60 min at 4° C., and then fluorescein Avidin D (15 μg/ml) for 30 min at 4° C. (each step was followed by washing×3). Finally, the fluorescein intensity of the individual cells was analyzed by flow cytometry.

LS102.9 mouse B-cells = experiment: Binding of biotin-labeled PLP-BPI to B-cell line, flow cytometry; format: cell-based; conditions: 50 μM, 16 hours at 37° C.; FIG. 11(A)
From the text: (each step was followed by washing×3). […] The results are illustrated in FIG. 11.

[4] = peptide treatment day 4 (one), re-injection day 30
[5] = peptide treatment day 4, 7, 10, 14 (four), re-injection day 30
[6] = Experiment I, 100 nmol/mouse i.v. between day 28 and day 35
[7] = Experiment II, 100 nmol/mouse i.v. (mixture 100 nmol each)
[8] = Experiment III, 100 nmol/mouse i.v.

## CC[C@H](C)[C@H](NC(=O)CCCCCNC(=O)CNC(=O)CCCCCNC(=O)CNC(=O)CCCCCNC(=O)[C@H](Cc1ccccc1)NC(=O)[C@H](CCCCN)NC(=O)[C@H](CC(=O)O)NC(=O)[C@@H]1CCCN1C(=O)[C@H](Cc1c[nH]cn1)NC(=O)CNC(=O)[C@H](CC(C)C)NC(=O)[C@H](Cc1c[nH]c2ccccc12)NC(=O)[C@H](CCCCN)NC(=O)CNC(=O)[C@H](CC(C)C)NC(=O)[C@H](CO)NC(=O)[C@@H](N)Cc1c[nH]cn1)C(=O)N[C@H](C(=O)N[C@@H](CC(=O)O)C(=O)NCC(=O)N[C@@H](CCC(=O)O)C(=O)N[C@@H](C)C(=O)N[C@H](C(=O)N[C@@H](CC(=O)O)C(=O)N[C@@H](CO)C(=O)NCC(=O)O)[C@@H](C)O)[C@@H](C)O [PLP-BPI, HSLGKWLGHPDKF-AcGAcGAc-ITDGEATDSG]
[1]
  number of animals that died, Day 10: 0
  number of animals that died, Day 11: 0
  number of animals that died, Day 14: 0
  toxicity (conclusion from mortality, in words): low toxicity
PLP/CFA-immunized mice; [4]
  Moribund or death: 3/6
PLP/CFA-immunized mice; [5]
  Moribund or death: 1/6
[2]; [6]
  Incidence of anaphylaxis: 35.7%
  Incidence of anaphylaxis (animals/total): 5/14
[2]; [7]
  Incidence of anaphylaxis: 38.5%
  Incidence of anaphylaxis (animals/total): 5/13

## CC[C@H](C)[C@H](NC(=O)CCCCCNC(=O)CNC(=O)CCCCCNC(=O)CNC(=O)CCCCCNC(=O)[C@H](Cc1ccccc1)NC(=O)[C@H](CCCCN)NC(=O)[C@H](CC(=O)O)NC(=O)[C@@H]1CCCN1C(=O)[C@H](Cc1c[nH]cn1)NC(=O)CNC(=O)[C@H](CC(C)C)NC(=O)[C@H](Cc1c[nH]c2ccccc12)NC(=O)[C@H](CCCCN)NC(=O)CNC(=O)[C@H](CC(C)C)NC(=O)[C@H](CO)NC(=O)[C@H](Cc1c[nH]cn1)NC(C)=O)C(=O)N[C@H](C(=O)N[C@@H](CC(=O)O)C(=O)NCC(=O)N[C@@H](CCC(=O)O)C(=O)N[C@@H](C)C(=O)N[C@H](C(=O)N[C@@H](CC(=O)O)C(=O)N[C@@H](CO)C(=O)NCC(N)=O)[C@@H](C)O)[C@@H](C)O [Ac-PLP-BPI-NH2, Ac-HSLGKWLGHPDKF)-AcGAcGAc-ITDGEATDSG-NH2]
PLP/CFA-immunized mice; [4]
  Moribund or death: 2/6
PLP/CFA-immunized mice; [5]
  Moribund or death: 1/6
[2]; [8]
  Incidence of anaphylaxis: 43.8%
  Incidence of anaphylaxis (animals/total): 7/16

## QEAFSHIRIPLPH-AcGAcGAc-ITDGEATDSG (QEAFSHIRIPLPH[Ahx]G[Ahx]G[Ahx]ITDGEATDSG; listed as Homo sapiens) [VP2-BPI]
EAE mouse model; after day 17, FIG. 8(B)
  disease incidence: 100%
EAE mouse model; around day 14, FIG. 8(C)
  loss of body weight (in words): greatest in PBS-treated mice followed by VP2-BPI-treated mice

## CC[C@H](C)[C@H](NC(=O)CCCCCNC(=O)CNC(=O)CCCCCNC(=O)CNC(=O)CCCCCNC(=O)[C@H](C)NC(=O)[C@H](CCC(=O)O)NC(=O)[C@H](CC(N)=O)NC(=O)[C@@H](NC(=O)[C@H](CCC(=O)O)NC(=O)[C@H](C)NC(=O)[C@H](Cc1c[nH]cn1)NC(=O)[C@H](C)NC(=O)[C@H](C)NC(=O)[C@H](Cc1c[nH]cn1)NC(=O)[C@@H](NC(=O)[C@H](C)N)C(C)C)[C@@H](C)CC)C(=O)N[C@H](C(=O)N[C@@H](CC(=O)O)C(=O)NCC(=O)N[C@@H](CCC(=O)O)C(=O)N[C@@H](C)C(=O)N[C@H](C(=O)N[C@@H](CC(=O)O)C(=O)N[C@@H](CO)C(=O)NCC(=O)O)[C@@H](C)O)[C@@H](C)O [OVA-BPI, AVHAAHAEINEA-AcGAcGAc-ITDGEATDSG]
[1]
  number of animals that died, Day 10: 0
  number of animals that died, Day 11: 0
  number of animals that died, Day 14: 2
  number of animals that died, Total: 2

## EbHSLGKWLGHPDKF-AcGAcGAc-ITDGEATDSG ([Eb]HSLGKWLGHPDKF[Ahx]G[Ahx]G[Ahx]ITDGEATDSG) [B-PLP-BPI]
[3]
  binding to B-cells from the spleen of EAE-induced mice (in words): can also bind to the B-cells from the spleen of EAE-induced mice
LS102.9 mouse B-cells
  binding to LS102.9 B-cell line (in words): binds to LS102.9 B-cell line

## CC[C@H](C)[C@H](N)C(=O)N[C@H](C(=O)N[C@@H](CC(=O)O)C(=O)NCC(=O)N[C@@H](CCC(=O)O)C(=O)N[C@@H](C)C(=O)N[C@H](C(=O)N[C@@H](CC(=O)O)C(=O)N[C@@H](CO)C(=O)NCC(=O)O)[C@@H](C)O)[C@@H](C)O [LABL, ITDGEATDSG]
[1]
  number of animals that died, Day 10: 3
  number of animals that died, Day 11: 1
  number of animals that died, Day 14: 0

## CC(C)C[C@H](NC(=O)[C@H](CC(C)C)NC(=O)[C@H](CCCCN)NC(=O)CNC(=O)[C@H](CC(C)C)NC(=O)[C@H](CO)NC(=O)[C@@H](N)Cc1c[nH]cn1)C(=O)NCC(=O)N[C@@H](CCCNC(=N)N)C(=O)N1CCC[C@H]1C(=O)N[C@@H](CC(=O)O)C(=O)N[C@@H](CCCCN)C(=O)N[C@@H](Cc1ccccc1)C(=O)O [PLPL,R, HSLGKLLGRPDKF] (H-HSLGKLLGRPDKF-OH)
[1]
  number of animals that died, Day 10: 0
  number of animals that died, Day 11: 5
  number of animals that died, Day 14: 1
  toxicity (conclusion from mortality, in words): severe effect (toxicity)

## CC(C)C[C@H](NC(=O)[C@H](Cc1c[nH]c2ccccc12)NC(=O)[C@H](CCCCN)NC(=O)CNC(=O)[C@H](CC(C)C)NC(=O)[C@H](CO)NC(=O)[C@@H](N)Cc1c[nH]cn1)C(=O)NCC(=O)N[C@@H](Cc1c[nH]cn1)C(=O)N1CCC[C@H]1C(=O)N[C@@H](CC(=O)O)C(=O)N[C@@H](CCCCN)C(=O)N[C@@H](Cc1ccccc1)C(=O)O [PLP, HSLGKWLGHPDKF]
[1]
  number of animals that died, Day 10: 0
  number of animals that died, Day 11: 0
  number of animals that died, Day 14: 0
  number of animals that died, Total: no animals died
[1]; listed as PLP139-151
  number of animals that died, Total: 0
PLP/CFA-immunized mice; peptide treatment None (PBS) day 4, 7, 10, 14, peptide injection day 30
  Moribund or death: 3/4
[2]; [6]
  Incidence of anaphylaxis: 75.0%
  Incidence of anaphylaxis (animals/total): 9/12
[2]; [7]
  Incidence of anaphylaxis (animals/total): 11/13
[2]; [8]
  Incidence of anaphylaxis: 76.5%
  Incidence of anaphylaxis (animals/total): 13/17
